# According to patent US10532103B2, “Degradation of cyclin-dependent kinase 9 (CDK9) by conjugation of CDK9 inhibitors with E3 ligase ligand and methods of use” (Dana-Farber Cancer Institute, Inc., priority 2016, dated 2020):
# Entries after “also recorded” stand apart in the source; their conditions may differ.
# How the values were obtained:
# Format in all cases: cell-based
# [1] = tested on: PolII serine 2 phosphorylation; test: Western blot for PolII serine 2 phosphorylation in Jurkat cells; settings: various concentrations, 6 hours
# Description: (§1) Cells are treated with a control or a bifunctional compound of the application alone or in combination with an agent that blocks proteasomal degradation at a single concentration or various concentrations. After treatment, cells are washed and harvested by resuspending in buffer and lysed on ice 30 minutes. Lysates are then cleared by centrifugation. Samples are boiled and equal amount of protein is loaded onto polyacrylamide gel. The gel is transferred to nitrocellulose and blotted for CDK13, CDK12, CDK9, CDK7, CDK2, CDK1, PolII serine 2 phosphorylation or Tubulin.
# (§2) Jurkat cells were treated with a DMSO (as a control) or various concentrations SNS-032 or Compound I-3 for 6 hours. After treatment, cells were washed and harvested by resuspending in RIPA lysis buffer ([…] Tris-HCl, […] NaCl, 1% NP-40, 0.5% sodium deoxycholate, and 1% SDS, pH 7.4, protease and phosphatase inhibitors) and lysed on ice 30 minutes. Equal amount of protein was loaded onto gel and blotted for PolI serine 2 phosphorylation, CDK9, or tubulin.
# CDK9 = molecular target: T1, CDK9 (Homo sapiens, UniProt P50750); test: Enzyme degradation assay (western blot) in Jurkat cells, CDK9
# T1 construct: endogenous in cells; host or cells: Jurkat cells
# T1 sequence (P50750 whole entry): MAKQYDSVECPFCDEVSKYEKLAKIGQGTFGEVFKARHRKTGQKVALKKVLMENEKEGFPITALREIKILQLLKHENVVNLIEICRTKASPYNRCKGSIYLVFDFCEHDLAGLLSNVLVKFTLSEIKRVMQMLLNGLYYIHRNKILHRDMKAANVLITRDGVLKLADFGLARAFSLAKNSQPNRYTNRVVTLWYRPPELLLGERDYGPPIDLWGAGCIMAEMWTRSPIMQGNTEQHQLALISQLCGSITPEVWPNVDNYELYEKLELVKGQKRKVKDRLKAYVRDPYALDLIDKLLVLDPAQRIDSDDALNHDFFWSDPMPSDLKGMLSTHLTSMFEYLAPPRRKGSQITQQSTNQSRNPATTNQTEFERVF
# T1 sequence (O60563 whole entry partner): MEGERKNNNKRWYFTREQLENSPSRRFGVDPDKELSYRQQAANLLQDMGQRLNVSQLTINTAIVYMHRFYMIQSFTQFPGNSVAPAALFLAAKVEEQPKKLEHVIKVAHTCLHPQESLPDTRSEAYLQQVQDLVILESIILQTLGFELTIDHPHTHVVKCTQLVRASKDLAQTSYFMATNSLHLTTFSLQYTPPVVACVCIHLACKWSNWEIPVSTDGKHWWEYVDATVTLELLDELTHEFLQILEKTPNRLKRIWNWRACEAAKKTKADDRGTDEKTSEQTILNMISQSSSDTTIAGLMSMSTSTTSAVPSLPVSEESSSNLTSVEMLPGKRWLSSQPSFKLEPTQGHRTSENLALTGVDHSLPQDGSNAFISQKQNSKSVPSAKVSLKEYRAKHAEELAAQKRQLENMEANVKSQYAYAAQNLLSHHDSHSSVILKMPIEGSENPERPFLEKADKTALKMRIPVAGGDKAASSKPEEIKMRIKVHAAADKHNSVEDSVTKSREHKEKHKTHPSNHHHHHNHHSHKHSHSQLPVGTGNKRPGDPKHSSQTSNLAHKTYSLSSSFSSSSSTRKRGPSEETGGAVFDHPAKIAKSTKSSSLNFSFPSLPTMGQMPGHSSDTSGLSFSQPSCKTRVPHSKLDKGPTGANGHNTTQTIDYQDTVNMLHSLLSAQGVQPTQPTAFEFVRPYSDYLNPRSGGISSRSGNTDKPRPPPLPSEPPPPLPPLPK
# Description: as §1
# (§3) Jurkat cells were treated with DMSO (as a control) or 500 nM of SNS-032 or 500 nM of a bifunctional compound of the application (i.e., Compound I-1, Compound I-2, or Compound I-3) or in combination with 5 μM MG132 for 6 hours. MGl32 is an agent that blocks proteasomal degradation. After treatment, cells were washed and harvested by resuspending in RIPA lysis buffer ([…] Tris-HCl, […] NaCl, 1% NP-40, 0.5% sodium deoxycholate, and 1% SDS, pH 7.4, protease and phosphatase inhibitors) and lysed on ice 30 minutes. Lysates were cleared by centrifugation at 15,000 rpm 30 minutes. Samples were boiled and equal amounts of protein were loaded onto gel. The gel was transferred to nitrocellulose and blotted for CDK13, CDK12, CDK9, CDK7, CDK2, CDK1, or tubulin.
# as §2, with “Alternatively, Jurkat” for “Jurkat”, “with” for “with a”, “of” for “SNS-032 or”, “alone (about 312 nm, 625 nm, 1.25 uM, 2.5 uM, and 5 uM) or with 5 μM MG132.” for “for 6 hours.”, “CDK13,” for “PolI serine 2 phosphorylation,”, “CDK9, CDK7, CDK2, CDK1,” for “CDK9,”
# as §2
# as §2, with “500 nM of” for “a DMSO (as a control) or various concentrations SNS-032 or”, “I-3 for 15 minutes, 30 minutes, 1 hour, 2 hours, 3 hours, 4 hours, or 6 hours or DMSO control” for “I-3”, “CDK13, CDK12,” for “PolI serine 2 phosphorylation,”
# CDK12 = molecular target: T2, CDK12 (Homo sapiens, UniProt Q9NYV4); test: Enzyme degradation assay (western blot) in Jurkat cells, CDK12; settings: for degradation of CDK12: 6 hours
# T2 construct: endogenous in cells; host or cells: Jurkat cells
# T2 sequence (Q9NYV4 whole entry): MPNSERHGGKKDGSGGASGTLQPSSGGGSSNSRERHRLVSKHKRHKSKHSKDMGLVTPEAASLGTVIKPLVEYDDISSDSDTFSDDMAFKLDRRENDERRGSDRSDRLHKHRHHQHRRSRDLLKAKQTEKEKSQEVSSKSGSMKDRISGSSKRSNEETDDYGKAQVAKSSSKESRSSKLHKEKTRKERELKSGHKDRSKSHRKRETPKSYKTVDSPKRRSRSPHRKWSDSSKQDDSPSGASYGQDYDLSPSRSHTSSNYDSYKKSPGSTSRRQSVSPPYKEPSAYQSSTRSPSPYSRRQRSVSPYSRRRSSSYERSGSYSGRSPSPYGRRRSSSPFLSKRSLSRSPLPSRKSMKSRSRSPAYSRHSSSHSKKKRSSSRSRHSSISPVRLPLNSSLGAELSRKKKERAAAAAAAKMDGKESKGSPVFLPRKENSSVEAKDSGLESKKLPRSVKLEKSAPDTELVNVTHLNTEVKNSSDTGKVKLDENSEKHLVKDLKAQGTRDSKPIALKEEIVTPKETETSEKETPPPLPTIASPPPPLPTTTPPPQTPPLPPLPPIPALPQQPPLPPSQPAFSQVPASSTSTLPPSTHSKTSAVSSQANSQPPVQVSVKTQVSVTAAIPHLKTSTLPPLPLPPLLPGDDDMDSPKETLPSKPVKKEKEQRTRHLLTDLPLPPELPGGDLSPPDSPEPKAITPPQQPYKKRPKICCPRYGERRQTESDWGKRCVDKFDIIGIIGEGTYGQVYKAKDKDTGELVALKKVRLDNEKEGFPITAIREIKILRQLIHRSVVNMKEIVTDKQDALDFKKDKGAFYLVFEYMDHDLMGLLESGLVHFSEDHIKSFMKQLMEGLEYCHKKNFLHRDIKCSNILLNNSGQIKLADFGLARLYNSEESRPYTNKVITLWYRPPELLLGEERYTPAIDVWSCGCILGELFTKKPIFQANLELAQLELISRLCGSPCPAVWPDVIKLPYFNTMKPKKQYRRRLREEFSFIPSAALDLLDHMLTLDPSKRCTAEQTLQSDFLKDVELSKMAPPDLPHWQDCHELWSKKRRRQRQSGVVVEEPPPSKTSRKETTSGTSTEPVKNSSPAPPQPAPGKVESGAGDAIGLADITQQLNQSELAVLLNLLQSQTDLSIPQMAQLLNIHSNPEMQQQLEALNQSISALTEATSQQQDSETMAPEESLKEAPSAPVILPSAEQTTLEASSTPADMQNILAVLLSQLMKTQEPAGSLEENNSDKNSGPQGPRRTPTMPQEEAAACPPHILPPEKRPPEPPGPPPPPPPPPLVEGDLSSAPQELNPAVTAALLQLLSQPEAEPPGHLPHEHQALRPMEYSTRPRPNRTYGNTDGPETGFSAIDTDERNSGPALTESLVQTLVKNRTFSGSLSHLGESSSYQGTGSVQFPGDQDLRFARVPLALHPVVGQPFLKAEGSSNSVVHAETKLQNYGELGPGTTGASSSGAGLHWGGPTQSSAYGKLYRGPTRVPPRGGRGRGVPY
# T2 sequence (O75909 whole entry partner): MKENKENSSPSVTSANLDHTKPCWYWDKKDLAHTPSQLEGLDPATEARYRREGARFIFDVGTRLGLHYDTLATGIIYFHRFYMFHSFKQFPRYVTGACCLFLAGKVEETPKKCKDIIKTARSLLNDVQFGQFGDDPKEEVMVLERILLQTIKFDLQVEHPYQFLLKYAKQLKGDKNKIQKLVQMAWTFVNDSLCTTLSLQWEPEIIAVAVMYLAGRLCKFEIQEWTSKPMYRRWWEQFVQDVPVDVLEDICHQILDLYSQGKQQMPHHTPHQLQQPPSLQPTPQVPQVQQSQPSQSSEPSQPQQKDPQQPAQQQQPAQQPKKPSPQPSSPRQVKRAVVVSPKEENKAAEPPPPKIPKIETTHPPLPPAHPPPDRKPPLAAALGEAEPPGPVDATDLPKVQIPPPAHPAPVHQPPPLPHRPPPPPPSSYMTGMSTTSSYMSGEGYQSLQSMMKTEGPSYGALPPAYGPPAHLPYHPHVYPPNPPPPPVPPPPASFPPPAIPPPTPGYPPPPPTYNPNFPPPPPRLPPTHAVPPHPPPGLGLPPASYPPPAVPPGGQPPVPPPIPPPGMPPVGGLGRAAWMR
# Description: as §1, §3
# as §2, with “500 nM of” for “a DMSO (as a control) or various concentrations SNS-032 or”, “I-3 for 15 minutes, 30 minutes, 1 hour, 2 hours, 3 hours, 4 hours, or 6 hours or DMSO control” for “I-3”, “CDK13, CDK12,” for “PolI serine 2 phosphorylation,”
# [2] = tested on: Molt4 cereblon null cells (CRBN−/−); test: Cell viability assay (celltiter glo), cereblon null cells; settings: cereblon knockout (CRBN−/−) Molt4 cells, titration, 72 hours
# Description: (§4) Wild-type or cereblon null cells are treated with various concentrations of a bifunctional compound of the invention and allowed to grow. Cells are then assayed to determine cell viability by measuring the amount of ATP present, which is an indicator of cell metabolic activity. Results are graphed as relative luminescent values.
# (§5) Molt4 wild-type or cereblon null cells were treated with a titration of a bifunctional compound of the invention (i.e., Compound I-1, Compound I-2, or Compound I-3) and allowed to grow for 72 hours. Cells were assayed using celltiter glo (Promega) to determine cell viability by measuring the amount of ATP present, which is an indicator of cell metabolic activity. Results are graphed as relative luminescent values.
# Molt4 wild-type cells = test: Cell viability assay (celltiter glo), wild-type cells; settings: wild-type (WT) Molt4 cells, titration, 72 hours
# Description: as §4, §5
# CDK13 = molecular target: T3, CDK13 (Homo sapiens, UniProt Q14004); test: Enzyme degradation assay (western blot) in Jurkat cells, CDK13
# T3 construct: endogenous in cells; host or cells: Jurkat cells
# T3 sequence (Q14004 whole entry): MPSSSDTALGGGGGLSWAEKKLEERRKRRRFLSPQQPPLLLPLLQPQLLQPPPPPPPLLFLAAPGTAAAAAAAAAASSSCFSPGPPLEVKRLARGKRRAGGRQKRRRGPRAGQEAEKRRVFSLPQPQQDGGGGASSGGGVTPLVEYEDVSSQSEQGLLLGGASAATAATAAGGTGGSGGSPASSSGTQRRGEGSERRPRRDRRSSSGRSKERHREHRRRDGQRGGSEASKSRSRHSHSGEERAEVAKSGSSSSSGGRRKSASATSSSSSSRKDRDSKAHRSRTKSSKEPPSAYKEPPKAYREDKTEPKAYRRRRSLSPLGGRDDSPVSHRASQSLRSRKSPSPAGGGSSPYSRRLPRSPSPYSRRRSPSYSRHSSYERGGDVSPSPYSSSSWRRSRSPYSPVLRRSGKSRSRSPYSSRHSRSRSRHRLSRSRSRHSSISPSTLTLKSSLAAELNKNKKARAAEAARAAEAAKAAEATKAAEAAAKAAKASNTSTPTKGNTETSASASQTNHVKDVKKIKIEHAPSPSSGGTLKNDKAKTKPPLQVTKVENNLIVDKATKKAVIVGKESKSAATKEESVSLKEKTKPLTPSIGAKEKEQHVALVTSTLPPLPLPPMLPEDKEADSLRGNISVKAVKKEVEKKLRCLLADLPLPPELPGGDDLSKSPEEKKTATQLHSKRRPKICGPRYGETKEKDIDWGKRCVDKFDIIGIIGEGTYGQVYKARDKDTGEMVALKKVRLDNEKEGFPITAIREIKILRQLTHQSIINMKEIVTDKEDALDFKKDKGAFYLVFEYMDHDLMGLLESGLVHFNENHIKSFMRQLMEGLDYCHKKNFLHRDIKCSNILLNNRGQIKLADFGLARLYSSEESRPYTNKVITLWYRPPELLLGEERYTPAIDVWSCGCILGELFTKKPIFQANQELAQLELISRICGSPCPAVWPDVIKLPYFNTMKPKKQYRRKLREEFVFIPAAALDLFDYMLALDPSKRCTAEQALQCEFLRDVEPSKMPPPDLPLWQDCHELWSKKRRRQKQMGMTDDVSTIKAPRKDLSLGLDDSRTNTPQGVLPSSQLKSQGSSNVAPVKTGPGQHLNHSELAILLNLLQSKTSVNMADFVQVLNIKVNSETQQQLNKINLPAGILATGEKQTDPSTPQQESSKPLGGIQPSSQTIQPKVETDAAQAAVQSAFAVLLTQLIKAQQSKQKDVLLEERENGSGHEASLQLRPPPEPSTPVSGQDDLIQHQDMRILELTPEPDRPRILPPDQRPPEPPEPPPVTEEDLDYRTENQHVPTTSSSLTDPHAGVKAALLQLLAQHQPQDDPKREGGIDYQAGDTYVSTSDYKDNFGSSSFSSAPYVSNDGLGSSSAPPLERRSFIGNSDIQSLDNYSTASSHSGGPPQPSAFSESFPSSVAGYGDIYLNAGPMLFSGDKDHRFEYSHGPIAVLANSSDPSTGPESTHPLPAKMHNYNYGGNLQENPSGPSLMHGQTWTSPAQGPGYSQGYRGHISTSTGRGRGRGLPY
# T3 sequence (O75909 whole entry partner): as the sequence (O75909 whole entry partner) above
# Description: as §1, §3
# as §2, with “Alternatively, Jurkat” for “Jurkat”, “with” for “with a”, “of” for “SNS-032 or”, “alone (about 312 nm, 625 nm, 1.25 uM, 2.5 uM, and 5 uM) or with 5 μM MG132.” for “for 6 hours.”, “CDK13,” for “PolI serine 2 phosphorylation,”, “CDK9, CDK7, CDK2, CDK1,” for “CDK9,”
# as §2, with “500 nM of” for “a DMSO (as a control) or various concentrations SNS-032 or”, “I-3 for 15 minutes, 30 minutes, 1 hour, 2 hours, 3 hours, 4 hours, or 6 hours or DMSO control” for “I-3”, “CDK13, CDK12,” for “PolI serine 2 phosphorylation,”
"degradation of CDK9 (CDK9; 500 nM, 6 hours)","degradation of CDK9, various concentrations, with MG132 (CDK9; with 5 μM MG132, 6 hours)","CDK12 levels over time (CDK12; 500 nM, 15 minutes to 6 hours)",degradation of CDK12 (CDK12; 500 nM),"CDK13 levels over time (CDK13; 500 nM, 15 minutes to 6 hours)","degradation of CDK13 (CDK13; 500 nM, 6 hours)","degradation of CDK13, various concentrations, with MG132 (CDK13; with 5 μM MG132, 6 hours)",SMILES,serine 2 phosphorylation of PolII [1],"degradation of CDK9 on co-treatment with MG132 (CDK9; 500 nM + 5 uM MG132, 6 hours)","CDK9 levels over time (CDK9; 500 nM, 15 minutes to 6 hours)","degradation of CDK9, various concentrations (CDK9; about 312 nm to 5 uM, 6 hours)","degradation of CDK12 on co-treatment with MG132 (CDK12; 500 nM + 5 uM MG132, 6 hours)",anti-proliferative effect [2],anti-proliferative effect (Molt4 wild-type cells),"degradation of CDK13 on co-treatment with MG132 (CDK13; 500 nM + 5 uM MG132, 6 hours)","degradation of CDK13, various concentrations (CDK13; about 312 nm to 5 uM, 6 hours)"
complete degradation,abolished degradation of CDK9,unaffected,partial degradation,unaffected,partial degradation,abolished,"CC(C)(C)c1cnc(CSc2cnc(NC(=O)C3CCN(CC(=O)NCCOCCOCCOCCNc4cccc5c4C(=O)N(C4CCC(=O)NC4=O)C5=O)CC3)s2)o1 (centres unmarked) [Compound I-3, N-(5-(((5-(tert-butyl)oxazol-2-yl)methyl)thio)thiazol-2-yl)-1-(14-((2-(2,6-dioxopiperidin-3-yl)-1,3-dioxoisoindolin-4-yl)amino)-2-oxo-6,9,12-trioxa-3-azatetradecyl)piperidine-4-carboxamide]",decreased serine 2 phosphorylation,reduced; also recorded: largely inhibited,decrease in CDK9 levels over time; also recorded: degradation of CDK9 increased with time of exposure,specificity for CDK9 at lower concentrations; also recorded: degradation also increased,abolished; also recorded: largely inhibited,not in the CRBN−/− cells; also recorded: anti-proliferation was no longer observed,showed antiproliferative effects; also recorded: caused anti-proliferation,abolished; also recorded: largely inhibited,CDK13 degradation at higher concentrations; also recorded: degradation also increased
no degradation,,,no degradation,,no degradation,,"CC(C)(C)c1cnc(CSc2cnc(NC(=O)C3CCNCC3)s2)o1 [SNS032, N-(5-(((5-(tert-butyl)oxazol-2-yl)methyl)thio)thiazol-2-yl)piperidine-4-carboxamide, reference compound]",decreased serine 2 phosphorylation,,,,,,,,
